These results are taken from PMC2909451 (European journal of pharmaceutical sciences : official …, 2010).

SMILES strings stand for the structures.

The target in one test is EAAT4 (Rattus norvegicus, UniProt O35921). The conditions noted are these: substrate uptake studies.
Another test addresses T1, OCTN2 (Homo sapiens, UniProt O76082).
T1 sequence (O76082 1-557): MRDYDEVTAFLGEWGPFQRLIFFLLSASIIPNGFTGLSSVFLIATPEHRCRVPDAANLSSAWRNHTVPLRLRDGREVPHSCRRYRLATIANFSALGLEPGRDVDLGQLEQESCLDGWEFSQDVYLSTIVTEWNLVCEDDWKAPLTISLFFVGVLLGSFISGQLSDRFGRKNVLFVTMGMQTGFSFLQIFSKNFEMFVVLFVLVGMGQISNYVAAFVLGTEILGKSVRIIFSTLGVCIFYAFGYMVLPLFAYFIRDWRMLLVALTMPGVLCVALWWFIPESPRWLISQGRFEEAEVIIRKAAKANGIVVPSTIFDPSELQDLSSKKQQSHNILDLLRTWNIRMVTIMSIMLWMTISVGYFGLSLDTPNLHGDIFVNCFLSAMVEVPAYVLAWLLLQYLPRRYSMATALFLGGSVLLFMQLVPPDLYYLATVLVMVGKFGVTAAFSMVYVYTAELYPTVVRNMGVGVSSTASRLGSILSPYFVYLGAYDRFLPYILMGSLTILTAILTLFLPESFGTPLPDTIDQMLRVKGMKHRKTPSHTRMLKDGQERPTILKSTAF
The test can be described thus: L-carnitine uptake study. In kind it is cell-based. The note with it: substrate uptake studies.

Chain of EAAT4 (O35921 whole entry): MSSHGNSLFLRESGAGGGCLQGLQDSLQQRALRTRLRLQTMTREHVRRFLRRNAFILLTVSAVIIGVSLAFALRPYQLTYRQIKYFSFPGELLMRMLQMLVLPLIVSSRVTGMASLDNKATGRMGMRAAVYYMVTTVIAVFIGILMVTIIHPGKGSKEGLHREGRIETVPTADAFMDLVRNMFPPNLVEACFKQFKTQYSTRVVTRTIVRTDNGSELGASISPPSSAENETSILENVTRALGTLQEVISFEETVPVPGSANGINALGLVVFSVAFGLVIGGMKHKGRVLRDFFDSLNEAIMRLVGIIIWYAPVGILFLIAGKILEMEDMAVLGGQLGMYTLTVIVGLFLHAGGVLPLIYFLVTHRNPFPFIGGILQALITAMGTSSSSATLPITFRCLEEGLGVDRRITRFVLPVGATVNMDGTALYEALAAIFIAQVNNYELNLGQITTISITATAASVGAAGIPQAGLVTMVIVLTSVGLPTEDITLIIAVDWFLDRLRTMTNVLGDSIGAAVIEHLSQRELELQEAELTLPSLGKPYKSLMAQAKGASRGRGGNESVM

With `N[C@@H](CCC(=O)O)C(=O)O` [glumatate, glutamate], the “Kt (Michaelis-Menten constant for transporter mediated transport)” value at EAAT4 was determined as 2.02 µM. Regarding `C[N+](C)(C)C[C@H](O)CC(=O)[O-]` [L-carnitine], the “Kt (Michaelis-Menten constant for transporter mediated transport)” value on OCTN2 was 5.33 µM.
